Read-outs that look alike come from different tables or passages of the source.
Legend:
[1] = target: T1, hCTPS1 enzyme (Homo sapiens, UniProt P17812); assay: Inhibition of CTPS1 enzyme activity (ADP-Glo method); assay type: biochemical; conditions: hCTPS1, 90 min reaction at 25° C.
T1 sequence (P17812 1-591): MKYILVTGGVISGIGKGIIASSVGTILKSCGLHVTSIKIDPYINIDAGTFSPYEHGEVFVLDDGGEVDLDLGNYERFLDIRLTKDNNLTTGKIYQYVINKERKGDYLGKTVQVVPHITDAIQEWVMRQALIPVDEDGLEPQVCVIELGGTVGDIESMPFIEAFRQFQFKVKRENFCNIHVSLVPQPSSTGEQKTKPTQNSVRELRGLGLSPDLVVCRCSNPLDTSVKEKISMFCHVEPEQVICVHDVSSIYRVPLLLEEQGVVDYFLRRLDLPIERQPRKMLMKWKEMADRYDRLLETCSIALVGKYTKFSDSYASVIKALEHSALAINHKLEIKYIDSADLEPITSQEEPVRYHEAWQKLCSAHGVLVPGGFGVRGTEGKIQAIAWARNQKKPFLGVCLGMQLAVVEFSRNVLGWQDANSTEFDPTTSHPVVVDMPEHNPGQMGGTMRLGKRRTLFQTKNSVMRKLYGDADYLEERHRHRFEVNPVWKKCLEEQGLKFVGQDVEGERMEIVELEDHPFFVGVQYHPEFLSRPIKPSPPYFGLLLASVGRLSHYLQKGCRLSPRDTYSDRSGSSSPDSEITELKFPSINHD
Description: The enzyme activity of CTPS1 was tested using the ADP-Glo method. Compounds were serially diluted in DMSO with 3-fold gradients across ten concentrations. Transfer 0.1 μL of diluted compound to a 384-well plate, centrifuge at 1000 rpm for 1 min. Add 2.5 μL of hCTPS1 enzyme working solution, centrifuge at 1000 rpm for 1 min, and incubate at 25° C. for 10 min. Add 2.5 μL of ATP & UTP solution and incubate at 25° C. for 10 min. Add 5 μL of substrate solution to initiate the reaction and incubate at 25° C. for 90 min. Add 10 μL of ADP-Glo solution to the 384-well plate, centrifuge at 1000 rpm for 1 min, incubate at 25° C. for 40 min, add 20 μL of detection solution, centrifuge at 1000 rpm for 1 min, and incubate at 25° C. for 60 min. […] were read using a BMG microplate reader. Inhibition rate (%) was calculated as follows: Inhibition rate (%)=[(DMSO control well signal−Compound well signal)/(DMSO control well signal−Blank control well signal)]×100%. IC50 values for compounds were analyzed by nonlinear regression in XLFit 5.5.0 software using the formula: Y=Bottom+(Top−Bottom)/(1+10^((LogIC50−X)*HillSlope)) where Y is the inhibition rate and X is the log value of compound concentration.

[2] = tested on: Jurkat cells; assay: Inhibition of Jurkat cell proliferation (CellTiter-Glo, 72 hours); assay type: cell-based; conditions: Homo sapiens
Description: Select Jurkat cells in good growth condition and digest them with trypsin. Add fresh culture medium, mix thoroughly, and centrifuge at 1000 rpm for 5 minutes. Seed the cells into a 96-well plate at a density of 10,000 cells per well, and incubate overnight in a 37° C. incubator. On the following day, take out of the culture plate and treat the cells with compounds prepared in a five-fold serial dilution. Return the plate to the 37° C. incubator and continue incubation for 72 hours.
After incubation, bring out the cell culture plate and equilibrate it to room temperature. Add 100 μL of CellTiter-Glo reagent to each well, shake in the dark for 2 minutes, and incubate for 10 minutes. Measure the luminescence using an Enspire plate reader. Calculate the inhibition rate using the following formula: Inhibition rate (%)=(1−(RLU_compound−RLU_blank)/(RLU_DMSO−RLU_blank))×100%. Plot the dose-response curve and calculate the IC50 value using XLFit.

[3] = in vivo; parameters: species or system SD rats; conditions: male, SD, rat, po
Description: Instrumentation: SCIEX Triple Quad 6500+ triple quadrupole liquid chromatography-mass spectrometry system (LC-MS/MS), operating software is Analyst 1.7.2 (Applied Biosystems, USA); ExionLC liquid chromatography system; Microsoft Excel was used for data calculation and processing. Pharmacokinetic parameters were calculated using the statistical moment method with WinNonlin 8.2 software. Key kinetic parameters included Tmax, T1/2, Cmax, AUC0-24 h etc. Column: Synergi 4 μm Fusion-RP 80 Å Luna C18 2 mm*50 mm, 4 μm; Column temperature: 40° C.; Mobile phase A: Water (0.1% formic acid); Mobile phase B: Acetonitrile; Flow rate: 0.8 mL/min; Gradient elution is adopted, the elution gradient is 0.10 min: 15% B; 1.60 min: 95% B; 1.90 min: 95% B; 1.91 min: 15% B; 2.20 min: 15% B. Injection volume: 1 μL.
Animals: 3 male SD rats with a weight range of 200-220 g were purchased and kept in the laboratory of the Experimental Animal Center for 3 days and then used. They were fasted for 12 hours predose and 4 hours after dosing. Drinking water was free during the test. After the rats were gavage, blood samples were taken according to the established time point.
Solvent: 0.4% ethanol+0.4% Tween80+99.2% (0.5% methylcellulose M450). Preparation of the solution for intragastric administration: Compounds were accurately weighed and added to the solvent. The mixture was then subjected to vortex mixing and sonication until a homogeneous suspension was achieved, thereby preparing medicinal solutions of the desired concentrations.
Compound samples: Typically, multiple structurally analogous compounds (with molecular weights differing by more than 2 units) were accurately weighed and administered together (cassette PK). This approach allows for the simultaneous screening of multiple compounds and comparison of their oral absorption rates. Single compound administration was also employed to study the pharmacokinetics of drug samples in rats.
After intragastric administration, blood was collected from the jugular vein at 0.25, 0.5, 1, 2, 4, 8, 10 and 24 hours. Transfer 20 μL of plasma sample (for blank samples and internal standard blank samples, add 20 μL of blank plasma) to a 1.5 mL centrifuge tube, add 200 μL of internal standard solution (50% methanol in acetonitrile (concentration 100 ng/mL)) (for Double blank samples, add 200 μL of 50% methanol in acetonitrile solution). Vortex the samples for 5 minutes, then centrifuge at 14000 rpm and 4° C. for 5 minutes. Transfer 80 μL and add to 80 μL of water, mix uniformly, and submit for LC-MS/MS analysis.
The compounds were accurately weighed to prepare different concentrations, and quantitative analysis on mass spectrometry was performed to establish a standard curve, and then the concentration of the above-mentioned compound in the plasma was tested to obtain its concentration at different time points. All measurement data were collected and processed by relevant software, and the statistical moment method was used to calculate the pharmacokinetic parameters (mainly including kinetic parameters Tmax, T1/2, Cmax, AUC0-24 h etc).

[4] = Jurkat cells, 72 hours, CellTiter-Glo, read-out: Jurkat (IC50)

IC50 [1] [nM] | IC50 [2, 4] [nM] | Compound | also measured
< 25 | < 30 | CCOc1cncc(-c2ccc(NC(=O)C3(c4ccnc(NS(=O)(=O)C5CC5)n4)CCC(=CF)CC3)nc2)n1 (stereo not drawn) [Compound 10] | AUC(0-t) ([3]; 3 mg/kg): 87200 ng·h/mL; Cmax ([3]; 3 mg/kg): 9330 ng/mL; Tmax ([3]; 3 mg/kg): 3.33 h; half-life ([3]; 3 mg/kg): 4.95 h
< 25 | < 15 | CCOc1cncc(-c2ccc(NC(=O)C3(c4ccnc(NS(=O)(=O)C5CC5)n4)CCC(=CCC(C)(C)O)CC3)nc2)n1 (stereo not drawn) [Compound 58] | AUC(0-t) ([3]; 3 mg/kg): 25100 ng·h/mL; Cmax ([3]; 3 mg/kg): 4540 ng/mL; Tmax ([3]; 3 mg/kg): 2.17 h; half-life ([3]; 3 mg/kg): 2.53 h
< 25 | < 15 | CCOc1cncc(-c2ccc(NC(=O)C3(c4ccnc(NS(=O)(=O)C5CC5)n4)CCC(=C(F)C4CCOCC4)CC3)nc2)n1 (stereo not drawn) [Compound 52] | AUC(0-t) ([3]; 1.5 mg/kg): 7640 ng·h/mL; Cmax ([3]; 1.5 mg/kg): 1210 ng/mL; Tmax ([3]; 1.5 mg/kg): 2 h; half-life ([3]; 1.5 mg/kg): 2.01 h
< 50 | < 30 | CCOc1cncc(-c2ccc(NC(=O)C3(c4ccnc(NS(=O)(=O)C5CC5)n4)CCC(=CCNC(C)=O)CC3)nc2)n1 (stereo not drawn) [Compound 22] | AUC(0-t) ([3]; 3 mg/kg): 137 ng·h/mL; Cmax ([3]; 3 mg/kg): 177 ng/mL; Tmax ([3]; 3 mg/kg): 0.25 h; half-life ([3]; 3 mg/kg): 1.64 h
< 50 | < 30 | C=CC(=O)N1CCC(C(=O)Nc2ccc(-c3cncc(OCC)n3)cn2)(c2ccnc(NS(=O)(=O)C3CC3)n2)CC1 [Compound 26] | AUC(0-t) ([3]; 3 mg/kg): 288 ng·h/mL; Cmax ([3]; 3 mg/kg): 118 ng/mL; Tmax ([3]; 3 mg/kg): 0.5 h; half-life ([3]; 3 mg/kg): 1.84 h
< 25 | < 15 | CCOc1cncc(-c2ccc(NC(=O)C3(c4ccnc(NS(=O)(=O)C5CC5)n4)CCC(=CC4(C)COC4)CC3)nc2)n1 (stereo not drawn) [Compound 62] | 
< 25 | < 15 | CCOc1cncc(-c2ccc(NC(=O)C3(c4ccnc(NS(=O)(=O)C5CC5)n4)CCC(=CCN4CCOCC4)CC3)nc2)n1 (stereo not drawn) [Compound 11] | 
< 50 | < 15 | CCOc1cncc(-c2ccc(NC(=O)C3(c4ccnc(NS(=O)(=O)C5CC5)n4)CCC(=C(F)CC4COC4)CC3)nc2)n1 (stereo not drawn) [Compound 69] | AUC(0-t) ([3]; 2 mg/kg): 11300 ng·h/mL; Cmax ([3]; 2 mg/kg): 2330 ng/mL; Tmax ([3]; 2 mg/kg): 1.83 h; half-life ([3]; 2 mg/kg): 1.89 h
< 50 | < 50 | CCOc1cncc(-c2ccc(NC(=O)C3(c4ccnc(NS(=O)(=O)C5CC5)n4)CCC(=C(F)CN4CCOCC4)CC3)nc2)n1 (stereo not drawn) [Compound 54] | 
< 25 | < 30 | CCOc1cncc(-c2ccc(NC(=O)C3(c4ccnc(NS(=O)(=O)C5CC5)n4)CCC(=CCCOC)CC3)nc2)n1 (stereo not drawn) [Compound 45] | 
< 50 | < 50 | CCOc1cncc(-c2ccc(NC(=O)C3(c4ccnc(NS(=O)(=O)C5CC5)n4)CCC(=CCOC)CC3)nc2)n1 (single isomer, unassigned) [Compound 18] | 
< 50 | < 100 | CCOc1cncc(-c2ccc(NC(=O)C3(c4ccnc(NS(=O)(=O)C5CC5)n4)CCC(=CCN4CC(O)C4)CC3)nc2)n1 (stereo not drawn) [Compound 27] | 
< 50 | < 50 | CCOc1cncc(-c2ccc(NC(=O)C3(c4ccnc(NS(=O)(=O)C5CC5)n4)CCC(=CCNS(C)(=O)=O)CC3)nc2)n1 (stereo not drawn) [Compound 23] | 
< 50 | < 50 | CCOc1cncc(-c2ccc(NC(=O)C3(c4ccnc(NS(=O)(=O)C5CC5)n4)CCC(=C(F)CC(C)(C)O)CC3)nc2)n1 (stereo not drawn) [Compound 67] | 
< 50 | < 50 | CCOc1cncc(-c2ccc(NC(=O)C3(c4ccnc(NS(=O)(=O)C5CC5)n4)CCC(=C(C)C)CC3)nc2)n1 (stereo not drawn) [Compound 2] | 
< 50 | < 30 | CCOc1cncc(-c2ccc(NC(=O)C3(c4ccnc(NS(=O)(=O)C5CC5)n4)CC(=CC(=O)OC)C3)nc2)n1 (stereo not drawn) [Compound 14] | 
< 100 | < 30 | CCOc1cncc(-c2ccc(NC(=O)C3(c4ccnc(NS(=O)(=O)C5CC5)n4)CC(=CC4CCOCC4)C3)nc2)n1 (stereo not drawn) [Compound 48] | 
< 25 | < 30 | CCOc1cncc(-c2ccc(NC(=O)C3(c4ccnc(NS(=O)(=O)C5CC5)n4)CCC(=C(C)F)CC3)nc2)n1 (stereo not drawn) [Compound 37] | 

Compound | IC50 [1] [nM] | IC50 [2, 4] [nM] | also measured
CCOc1cncc(-c2ccc(NC(=O)C3(c4ccnc(NS(=O)(=O)C5CC5)n4)CCC(=C(C)CO)CC3)nc2)n1 (stereo not drawn) [Compound 47] | < 25 | < 15 | AUC(0-t) ([3]; 2 mg/kg): 1410 ng·h/mL; Cmax ([3]; 2 mg/kg): 1820 ng/mL; Tmax ([3]; 2 mg/kg): 0.25 h; half-life ([3]; 2 mg/kg): 2.01 h
CCOc1cncc(-c2ccc(NC(=O)C3(c4ccnc(NS(=O)(=O)C5CC5)n4)CCC(=C(F)CO)CC3)nc2)n1 (stereo not drawn) [Compound 39] | < 25 | < 15 | AUC(0-t) ([3]; 2 mg/kg): 1470 ng·h/mL; Cmax ([3]; 2 mg/kg): 837 ng/mL; Tmax ([3]; 2 mg/kg): 1.33 h; half-life ([3]; 2 mg/kg): 2.48 h
CCOc1cncc(-c2ccc(NC(=O)C3(c4ccnc(NS(=O)(=O)C5CC5)n4)CCC(=CC4COC4)CC3)nc2)n1 (stereo not drawn) [Compound 36] | < 25 | < 5 | AUC(0-t) ([3]; 3 mg/kg): 6250 ng·h/mL; Cmax ([3]; 3 mg/kg): 3770 ng/mL; Tmax ([3]; 3 mg/kg): 0.25 h; half-life ([3]; 3 mg/kg): 2.8 h
CCOc1cncc(-c2ccc(NC(=O)C3(c4ccnc(NS(=O)(=O)C5CC5)n4)CCN(C4CC(=C(F)F)C4)CC3)nc2)n1 (stereo not drawn) [Compound 31] | < 100 | < 50 | 
CCOc1cncc(-c2ccc(NC(=O)C3(c4ccnc(NS(=O)(=O)C5CC5)n4)CCC(=CC#N)CC3)nc2)n1 (stereo not drawn) [Compound 8] | < 50 | < 15 | 
CCOc1cncc(-c2ccc(NC(=O)C3(c4ccnc(NS(=O)(=O)C5CC5)n4)CCC(=CCN(C)C)CC3)nc2)n1 (stereo not drawn) [Compound 15] | < 100 |  | IC50 ([2]; Jurkat, 72 h, read-out: Jurkat (IC50, nM)): < 50 nM

From patent US20260226026A1, “COMPOUND AS CTPS1 INHIBITOR” (Hangzhou Innogate Pharma Co., Ltd., priority 2023, published 2026)
